{"source": "patent US10532040B2", "about": "“Methods of treating cancer with herbacetin” (REGENTS OF THE UNIVERSITY OF MINNESOTA, priority 2011, dated 2020)", "key": {"APC^min+ mice": {"tested_on": "APC^min+ mice", "test": "APC^min+ mouse model, 8 weeks", "type": "in vivo", "from_the_text": "Male C57BL/6J^(Min/+) mice were obtained from Jackson Laboratory and maintained under “specific pathogen-free” conditions according to the guidelines established by the University of Minnesota Institutional Animal Care and Use Committee. APC^min+ male mice were bred with C57BL/6J APC wildtype female mice. The progeny were genotyped by PCR assay to determine whether they were heterozygous for the min allele or were homozygous wildtype. APC^min+ male or female progeny were randomly assigned to groups after weaning at 3 weeks. Mice (5˜6 weeks old) were divided into 4 groups: 1) untreated vehicle group (n=12); 2) mice treated with 0.4 mg herbacetin/kg of body weight (n=13); 3) mice treated with 2 mg herbacetin/kg of body weight (n=13); and mice treated with 100 mg difluoromethylornithine (DFMO)/kg of body weight (n=10). Herbacetin, DFMO, or vehicle was injected 3 times a week for 8 weeks."}, "ERKs/RSK2 signaling": {"tested_on": "ERKs/RSK2 signaling", "test": "TPA- or EGF-induced phosphorylation of ERK1 and ERK2 in JB6 cells, Western blotting", "type": "cell-based, mouse", "conditions": "herbacetin 2 h then TPA or EGF 15 min", "description": "FIGS. 6A-6B. The effect of herbacetin on (a) TPA- or (b) EGF-induced phosphorylation of ERK1 and ERK2 in JB6 mouse epidermal cells was analyzed by Western blotting. Serum-starved (0.1% FBS; 24 h) cells were treated with various doses of herbacetin for 2 h followed by treatment with TPA for 15 min.\nWe determined whether herbacetin affected the reporter activity of the MAP kinase target transcription factor, activator protein-1 (AP-1), in HCT116 cells or JB6 cells stimulated with TPA. HCT116 cells were treated with herbacetin for 48 hand JB6 cells were pre-treated with herbacetin for 2 h before stimulation with TPA for 48 h. AP-1 reporter activity was then measured (FIG. 3f, g) and the activity was attenuated by herbacetin in colon cancer cells and in TPA-activated JB6 cells. […] We next examined whether herbacetin directly suppresses phosphorylation of ERK1/2. JB6 cells were treated with TPA or EGF for 15 min after pre-treatment with herbacetin for 2 h and protein expression was analyzed by Western blotting (Supplementary FIG. 2a,b)."}, "[1]": {"tested_on": "HCT116 cells (shMock, shODC, shODC+ODC)", "test": "growth of shMock, shODC and shODC+ODC HCT116 cells", "type": "cell-based", "description": "FIGS. 4A-4B. The anti-cancer activity exerted by herbacetin is dependent on ODC expression. (a) The effect of herbacetin on HCT116 colon cancer cell growth was assessed in shMock, shODC and shODC cells with rescued ODC expression. Cells were incubated for 72 h and growth was determined by MTS assay. (b) The effect of herbacetin on anchorage independent HCT116 colon cancer cell growth was assessed inshMock, shODC and shODC cells with rescued ODC expression. Cells were incubated in 0.3% agar for 3 weeks and colonies were counted using a microscope and the Image-Pro PLUS (v.6) computer software program. Data are represented as means±S.D. of triplicate values. The asterisk (*) indicates a significant effect (p<0.05) of herbacetin or DFMO compared to untreated controls.\nThe lentiviral expression vectors, including pLKO.1-shODC and packaging vectors, including pMD2.0G and psPAX, were purchased from Addgene Inc. (Cambridge, Mass.). […] The transfection medium was changed at 4 h after transfection and then cells were cultured for 36 h. The viral particles were harvested by filtration using a […] syringe filter and then combined with 8 μg/ml of polybrane (Millipore, Billerica, Mass.) and infected into 60% confluent HCT-116 cells overnight. The cell culture medium was replaced with fresh complete growth medium for 24 h and then cells were selected with 1.5 μg/ml of puromycine for 36 h. The selected cells were used for experiments."}, "[2]": {"tested_on": "activator protein-1, Cox2, NF-kappaB", "test": "promoter activities (preliminary data)", "type": "cell-based"}, "[3]": {"conditions": "herbacetin 0.4 or 2 mg/kg, DFMO 100 mg/kg, 3 times/week for 8 weeks, vs vehicle"}}, "note": "Entries after “also recorded” stand apart in the source; their conditions may differ."}
{"smiles": "O=c1c(O)c(-c2ccc(O)cc2)oc2c(O)c(O)cc(O)c12", "note": "[herbacetin, 3,5,7,8,4′-Pentahydroxyflavone]", "values": [{"measurement": "anemia (bloody stools)", "setting": "APC^min+ mice; 0.4 or 2 mg/kg, 8 weeks", "value": "seemed to reduce anemia"}, {"measurement": "tolerability: signs of toxicity, body weight loss", "setting": "APC^min+ mice; 8 weeks treatment", "value": "without overt signs of toxicity or significant body weight loss"}, {"measurement": "polyp number", "setting": "APC^min+ mice; [3]", "value": "significantly suppressed"}, {"measurement": "polyp size", "setting": "APC^min+ mice; [3]", "value": "significantly suppressed"}, {"measurement": "overall appearance of mice", "setting": "APC^min+ mice; vs vehicle- or DFMO-treated mice", "value": "appeared healthier"}, {"measurement": "direct suppression of ERKs/RSK2 signaling", "setting": "ERKs/RSK2 signaling", "value": "does not occur directly through the suppression of ERKs/RSK2 signaling"}, {"measurement": "inhibitory effect on anchorage-dependent and -independent growth of shODC cells", "setting": "[1]; shODC vs shMock HCT116 cells", "value": "resistance to herbacetin; also recorded: resistant"}, {"measurement": "sensitivity of shODC cells with rescued ODC expression", "setting": "[1]; shODC+ODC HCT116 cells", "value": "restored; also recorded: regained sensitivity"}, {"measurement": "inhibition of colony growth after re-introduction of ODC into sh-ODC knockdown cells", "setting": "[1]; shODC+ODC HCT116 cells, soft agar", "value": "restored sensitivity"}, {"measurement": "promoter activities of activator protein-1, Cox2, NF-kappaB", "setting": "[2]", "value": "suppress promoter activities"}]}
